Experimental data reported in ChEMBL document CHEMBL1121787, “Some 14 beta-substituted analogues of N-(cyclopropylmethyl)normorphine” (J Med Chem, 1981).
“And” between values parts separate entries of the source, which are not always exact repeats. Identical values can stand only once. The source made the active and inactive calls. No cut-off for these calls is given here.

Key:
Mus musculus [1] = organism: Mus musculus
[2] = tested on: Opioid receptors; mu & kappa; conditions: Cavia porcellus; Ileum
Mus musculus [3] = organism: Mus musculus; test: Opioid antagonist activity of compound was measured as inhibiting the binding of normorphine to mouse vas deferens; assay type: functional
Cavia porcellus = organism: Cavia porcellus; test: Opioid agonistic activity was measured in guinea pig ileum; assay type: functional
Mus musculus [4] = organism: Mus musculus; test: Opioid agonistic activity was measured in mouse vas deferens; assay type: functional
Mus musculus [5] = organism: Mus musculus; test: Opioid agonistic activity was measured in mouse vas deferens.; assay type: functional

| Structure (SMILES) | Ke [2] [nM] | Ke (Mus musculus [3]) | IC50 (Cavia porcellus) [nM] | IC50 (Mus musculus [4]) [nM] | other results |
| --- | --- | --- | --- | --- | --- |
| CN1CC[C@]23c4c5ccc(O)c4O[C@H]2[C@@H](O)C=C[C@H]3[C@H]1C5 |  |  |  |  | Ke (Mus musculus [1]): inactive |
| O=C1C=C[C@@]2(Br)C3Cc4ccc(O)c5c4C2(CCN3CC2CC2)[C@H]1O5 (some centres undefined) | 1.36 | 2.35 nM and 2.83 nM |  |  |  |
| C=CCN1CC[C@]23c4c5ccc(O)c4O[C@H]2C(=O)CC[C@@]3(O)[C@H]1C5 [NALOXONE] |  | 3.66 nM |  |  |  |
| Oc1ccc2c3c1O[C@H]1[C@@H](O)C=C[C@H]4C(C2)N(CC2CC2)CCC341 (some centres undefined) | 0.8 |  | 2.16 |  |  |
| O=C1CC[C@@]2(O)[C@H]3Cc4ccc(O)c5c4[C@@]2(CCN3CC2CC2)[C@H]1O5 [NALTREXONE] |  |  |  |  | Inhibition (Cavia porcellus): 25% |
| Oc1ccc2c3c1O[C@H]1[C@@H](O)C=C[C@@]4(S)C(C2)N(CC2CC2)CCC314 (some centres undefined) | 1.69 | 22.9 nM and 20 nM | 39.1 | 218 |  |
| O=C1C=C[C@@]2([N+](=O)[O-])C3Cc4ccc(O)c5c4C2(CCN3CC2CC2)[C@H]1O5 (some centres undefined) | 4.44 | 14.9 nM | 41.2 | 330 | IC50 (Mus musculus [5]): 580 nM |
| C=CCN1CC[C@]23c4c5ccc(O)c4O[C@H]2[C@@H](O)C=C[C@H]3[C@H]1C5 [NALORPHINE] | 4.47 | 28.7 nM | 24.3 | 535 |  |
| Oc1ccc2c3c1O[C@H]1[C@@H](O)C=C[C@@]4(O)C(C2)N(CC2CC2)CCC314 (some centres undefined) | 2.35 | 10.5 nM and 9 nM |  |  |  |
| O=C1C=C[C@@]2(Cl)C3Cc4ccc(O)c5c4C2(CCN3CC2CC2)[C@H]1O5 (some centres undefined) | 3.92 | 16.6 nM |  |  |  |
